Source: US20170226120A1, “INHIBITORS OF HIF PROLYL HYDROXYLASE” (MERCK SHARP & DOHME CORP., priority 2014, published 2017)

Biological target: T1, human HIF-PHD2 (Homo sapiens, UniProt Q9GZT9)
T1 construct: FLAG-tagged full length PHD2 expressed in and purified from baculovirus-infected Sf9 cells; FLAG; made in house; host or cells: baculovirus-infected Sf9 cells
Test: HIF-PHD2 inhibition, time resolved fluorescence assay of HIF-1α peptide hydroxylation
Type: biochemical
Settings: FLAG-tagged full length PHD2; 0.2 μM 2-oxoglutarate, 0.5 μM HIF-1α peptide
Procedure: To each well of a 384-well plate, 1 μL of test compounds in DMSO (final concentration ranging from 0.3 nM to 10 uM) were added into 20 μl of assay buffer (50 mM Tris pH 7.4/0.01% Tween-20/0.1 mg/ml bovine serum albumin/10 μM ferrous sulfate/1 mM sodium ascorbate/20 μg/ml catalase) containing 0.15 μg/ml FLAG-tagged full length PHD2 expressed in and purified from baculovirus-infected Sf9 cells. After a 5 min preincubation at room temperature, the enzymatic reactions were initiated by the addition of 4 μL of substrates {final concentrations of 0.2 μM 2-oxoglutarate and 0.5 μM HIF-1α peptide biotinyl-[…] […] After incubation for 45 minutes at room temperature, the reactions were terminated by the addition of a 25 μL quench/detection mix to a final concentration of 1 mM ortho-phenanthroline, 0.1 mM EDTA, 0.5 nM anti-(His)6 LANCE reagent (Perkin-Elmer Life Sciences), 100 nM AF647-labeled streptavidin (Invitrogen), and 2 μg/ml (His)6-VHL complex {S. Tan Protein Expr. Purif.

T1 sequence (Q9GZT9 whole entry): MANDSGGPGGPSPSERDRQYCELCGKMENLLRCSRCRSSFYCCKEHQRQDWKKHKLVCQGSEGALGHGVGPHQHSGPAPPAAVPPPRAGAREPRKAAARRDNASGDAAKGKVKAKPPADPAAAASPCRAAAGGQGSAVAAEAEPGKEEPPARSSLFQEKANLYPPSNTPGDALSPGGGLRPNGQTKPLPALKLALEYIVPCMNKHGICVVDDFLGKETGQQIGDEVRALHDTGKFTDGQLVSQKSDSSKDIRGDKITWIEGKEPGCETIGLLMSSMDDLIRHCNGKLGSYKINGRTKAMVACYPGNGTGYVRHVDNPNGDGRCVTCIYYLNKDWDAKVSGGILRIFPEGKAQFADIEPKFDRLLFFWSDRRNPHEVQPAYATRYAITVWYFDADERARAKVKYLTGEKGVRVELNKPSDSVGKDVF

SMILES	IC50
COc1ccc(Cn2c3c(c(O)c(C(=O)NCC(=O)O)c2=O)COC3)cn1 [Example 51, 2-(4-hydroxy-1-((6-methoxypyridin-3-yl)methyl)-2-oxo-1,2,5,7-tetrahydrofuro[3,4-b]pyridine-3-carboxamido)acetic acid]	6.8 nM
N#Cc1ccc(Cn2c3c(c(O)c(C(=O)NCC(=O)O)c2=O)COC3)cc1F [Example 53, 2-(1-(4-cyano-3-fluorobenzyl)-4-hydroxy-2-oxo-1,2,5,7-tetrahydrofuro[3,4-b]pyridine-3-carboxamido)acetic acid]	7.1 nM
CCn1c2c(c(O)c(C(=O)NCC(=O)O)c1=O)COC2 [Example 54, 2-(1-ethyl-4-hydroxy-2-oxo-1,2,5,7-tetrahydrofuro[3,4-b]pyridine-3-carboxamido)acetic acid]	17.4 nM
Cn1c2c(c(O)c(C(=O)NCC(=O)O)c1=O)COC2 [Example 55, 2-(1-methyl-4-hydroxy-2-oxo-1,2,5,7-tetrahydrofuro[3,4-b]pyridine-3-carboxamido)acetic acid]	10.4 nM
CC(c1ccc(C(F)(F)F)cc1)n1c2c(c(O)c(C(=O)NCC(=O)O)c1=O)COC2 (centres unmarked) [Example 56, 2-(4-hydroxy-2-oxo-1-(1-(4-(trfluoromethyl)phenyl)ethyl)-1,2,5,7-tetrahydrofuro[3,4-b]pyridine-3-carboxamido)acetic acid]	19.6 nM
O=C(O)CNC(=O)c1c(O)c2c(n(Cc3ccc(C(=O)O)cc3)c1=O)COC2 [Example 57, 4-((3-((Carboxymethyl)carbamoyl)-4-hydroxy-2-oxofuro[3,4-b]pyridin-1(2H,5H,7H)-yl)methyl)benzoic acid]	7.2 nM
O=C(O)CNC(=O)c1c(O)c2c(n(Cc3ccccc3C(=O)O)c1=O)COC2 [Example 58, 2-((3-((carboxymethyl)carbamoyl)-4-hydroxy-2-oxofuro[3,4-b]pyridin-1(2H,5H,7H)-yl)methyl)benzoic acid]	17.4 nM
O=C(O)CNC(=O)c1c(O)c2c(n(Cc3cccc(C(=O)O)c3)c1=O)COC2 [Example 59, 3-((3-((carboxymethyl)carbamoyl)-4-hydroxy-2-oxofuro[3,4-b]pyridin-1(2H,5H,7H)-yl)methyl)benzoic acid]	8 nM

The next compounds have a lower IC50 than those just listed; values first:

IC50	SMILES
5.4 nM	CCc1ccc(Cn2c3c(c(O)c(C(=O)NCC(=O)O)c2=O)COC3)cn1 [Example 63, 2-(4-Hydroxy-2-oxo-1-((6-ethylpyridin-3-yl)methyl)-1,2,5,7-tetrahydrofuro[3,4-b]pyridine-3-carboxamido)acetic acid]
5.1 nM	Cc1cc(C#N)ccc1Cn1c2c(c(O)c(C(=O)NCC(=O)O)c1=O)COC2 [Example 49, 2-(1-(4-cyano-2-methylbenzyl)-4-hydroxy-2-oxo-1,2,5,7-tetrahydrofuro[3,4-b]pyridine-3-carboxamido)acetic acid]
5 nM	Cc1cc(Cn2c3c(c(O)c(C(=O)NCC(=O)O)c2=O)COC3)ccc1Cl [Example 50, 2-(1-(4-chloro-3-methylbenzyl)-4-hydroxy-2-oxo-1,2,5,7-tetrahydrofuro[3,4-b]pyridine-3-carboxamido)acetic acid]
4.3 nM	NC(=O)c1ccc(Cn2c3c(c(O)c(C(=O)NCC(=O)O)c2=O)COC3)cc1 [Example 60, 2-(1-(4-Carbamoylbenzyl)-4-hydroxy-2-oxo-1,2,5,7-tetrahydrofuro[3,4-b]pyridine-3-carboxamido)acetic acid]
3.7 nM	C=Cc1ccc(Cn2c3c(c(O)c(C(=O)NCC(=O)O)c2=O)COC3)cn1 [Example 62, 2-(4-Hydroxy-2-oxo-1-((6-vinylpyridin-3-yl)methyl)-1,2,5,7-tetrahydrofuro[3,4-b]pyridine-3-carboxamido)acetic acid]
2.7 nM	O=C(O)CNC(=O)c1c(O)c2c(n(Cc3ccc(Cl)cc3F)c1=O)COC2 [Example 52, 2-(1-(4-chloro-2-fluorobenzyl)-4-hydroxy-2-oxo-1,2,5,7-tetrahydrofuro[3,4-b]pyridine-3-carboxamido)acetic acid]
